Values of other authors as cited in patent publication US6034057A, “Peptide inhibitors of fibronectine” (Zeneca Limited, priority 1995, dated 2000).
Bridge positions count the residues as written; N and C are the ends. Ends that are not written are not given here. * marks the point of attachment. Acetyl(1-adamantyl) = O=C(CC12CC3CC(CC(C3)C1)C2)*

What was measured:
[1] = molecular target: αIIbβ IIIa (Homo sapiens, UniProt P05106+P08514)
[2] = molecular target: αvβ3 (Homo sapiens, UniProt P05106+P06756)
[3] = tested on: fibronectin
[4] = tested on: fibronectin; remark: listed apart in the source
[5] = tested on: 120 kDa chymotryptic fragment of fibronectin

Chain of αvβ3 (P06756 31-889 limits assumed): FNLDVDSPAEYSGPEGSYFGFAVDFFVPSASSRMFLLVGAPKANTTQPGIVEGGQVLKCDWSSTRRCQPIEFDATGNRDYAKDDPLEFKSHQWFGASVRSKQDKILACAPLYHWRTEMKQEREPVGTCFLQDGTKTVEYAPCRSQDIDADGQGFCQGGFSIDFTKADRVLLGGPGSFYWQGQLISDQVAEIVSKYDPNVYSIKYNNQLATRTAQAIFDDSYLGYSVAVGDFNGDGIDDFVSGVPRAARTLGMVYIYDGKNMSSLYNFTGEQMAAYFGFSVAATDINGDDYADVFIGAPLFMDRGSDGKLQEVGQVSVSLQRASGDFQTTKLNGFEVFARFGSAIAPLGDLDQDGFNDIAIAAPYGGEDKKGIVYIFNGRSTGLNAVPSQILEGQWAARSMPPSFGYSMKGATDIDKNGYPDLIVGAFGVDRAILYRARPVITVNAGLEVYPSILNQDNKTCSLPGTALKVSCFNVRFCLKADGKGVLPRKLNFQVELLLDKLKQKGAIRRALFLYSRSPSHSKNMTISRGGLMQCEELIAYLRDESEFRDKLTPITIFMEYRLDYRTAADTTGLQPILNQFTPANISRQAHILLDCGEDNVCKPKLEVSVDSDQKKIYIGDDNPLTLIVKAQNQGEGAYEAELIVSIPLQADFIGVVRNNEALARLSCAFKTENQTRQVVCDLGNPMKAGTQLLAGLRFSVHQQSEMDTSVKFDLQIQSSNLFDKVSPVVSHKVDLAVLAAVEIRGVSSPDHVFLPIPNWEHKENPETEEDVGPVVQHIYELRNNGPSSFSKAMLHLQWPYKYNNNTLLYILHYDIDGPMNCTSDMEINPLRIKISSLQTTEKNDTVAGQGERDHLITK
Chain of αvβ3 (P06756 891-1048 partner limits assumed): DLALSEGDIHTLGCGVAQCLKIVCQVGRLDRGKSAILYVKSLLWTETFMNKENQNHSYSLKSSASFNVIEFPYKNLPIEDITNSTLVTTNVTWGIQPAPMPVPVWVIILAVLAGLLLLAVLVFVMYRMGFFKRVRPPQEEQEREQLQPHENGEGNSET
Chain of αvβ3 (P05106 27-788): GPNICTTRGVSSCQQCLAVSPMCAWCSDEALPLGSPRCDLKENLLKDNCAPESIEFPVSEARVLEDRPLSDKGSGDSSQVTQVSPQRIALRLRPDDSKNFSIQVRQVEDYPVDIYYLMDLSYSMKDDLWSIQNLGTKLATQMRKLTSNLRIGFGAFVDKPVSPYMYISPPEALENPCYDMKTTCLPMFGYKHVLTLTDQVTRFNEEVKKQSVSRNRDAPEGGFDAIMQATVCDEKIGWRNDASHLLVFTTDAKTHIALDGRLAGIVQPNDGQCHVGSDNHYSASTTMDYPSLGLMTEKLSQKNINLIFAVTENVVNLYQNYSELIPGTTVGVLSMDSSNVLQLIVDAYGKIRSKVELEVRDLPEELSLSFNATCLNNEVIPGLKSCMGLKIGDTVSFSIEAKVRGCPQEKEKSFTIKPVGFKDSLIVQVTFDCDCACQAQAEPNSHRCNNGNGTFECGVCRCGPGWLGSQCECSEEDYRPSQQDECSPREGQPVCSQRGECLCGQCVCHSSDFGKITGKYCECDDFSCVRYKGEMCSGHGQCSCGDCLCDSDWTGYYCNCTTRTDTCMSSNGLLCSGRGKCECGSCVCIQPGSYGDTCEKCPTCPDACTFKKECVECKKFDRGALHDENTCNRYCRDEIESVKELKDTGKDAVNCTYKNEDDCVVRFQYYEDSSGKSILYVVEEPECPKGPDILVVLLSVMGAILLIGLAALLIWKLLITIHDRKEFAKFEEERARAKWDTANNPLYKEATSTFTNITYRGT

Row | Substance | inhibition of function in αIIbβ IIIa-dependent assay [1] | inhibition of function in αvβ3-dependent assay [2] | inhibition of binding of Jurkat cells to fibronectin coated plates [3] | inhibition of leukocyte cell adhesion to fibronectin [4] | inhibition of binding to the 120 kDa chymotryptic fragment of fibronectin [5]
1 | 1-adamantaneacetyl-Cys-Gly-Arg-Gly-Asp-Ser-Pro-Cys ({Acetyl(1-adamantyl)}-CGRGDSPC; disulfide 1-8 (inferred)) | inhibited function | inhibited function | inhibited the binding of Jurkat cells to fibronectin coated plates | – | –
2 | Arg-Cys-Asp-thioproline-Cys | – | – | – | inhibitor of leukocyte cell adhesion to fibronectin | inhibited the binding to the 120 kDa chymotryptic fragment of fibronectin
